Results published in patent publication US20140378525A1, “MATERIALS AND METHODS FOR TREATING PTEN MUTATED OR DEFICIENT CANCER” (priority 2011, published 2014).

Tests used:
Assay in all cases: Drug sensitivity of breast cancer cell line to lapatinib
Type in all cases: cell-based, human
BT474 = details: BT474, ERBB2 amplified
From the text: (§1) To complement this functional viability profiling, we also characterised the breast tumor panel using transcript microarrays, array-based comparative genomic hybridisation (aCGH), drug sensitivity for a small number of targeted agents, as well as gene mutation data.

HCC202 = details: HCC202, ERBB2 amplified
From the text: as §1

MDAMB453 = details: MDAMB453, ERBB2 amplified
From the text: as §1

SKBR3 = details: SKBR3, ERBB2 amplified
From the text: as §1

JIMT1 = details: JIMT1, ERBB2 amplified
From the text: as §1

VP229 = details: VP229, ERBB2 amplified
From the text: as §1

CS(=O)(=O)CCNCc1ccc(-c2ccc3ncnc(Nc4ccc(OCc5cccc(F)c5)c(Cl)c4)c3c2)o1 [lapatinib] was tested, and the “sensitivity to lapatinib treatment” value (BT474) was “sensitive”, the “sensitivity to lapatinib treatment” value (HCC202) was “sensitive” and the “sensitivity to lapatinib treatment” value (MDAMB453) was “resistant”. The “sensitivity to lapatinib treatment” value (SKBR3) was “sensitive”, the “sensitivity to lapatinib treatment” value (JIMT1) was “resistant” and the “sensitivity to lapatinib treatment” value (VP229) was “resistant”.
